Measured values: PubChem BioAssay (NCI)
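The concentration for 50% growth inhibition is given as GI50. TGI marks complete inhibition of growth.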

Tests used:
Assay in all cases: inhibition of tumour cell growth, NCI panel, 384-well format
786-0 renal = tested on: 786-0 renal
SR leukemia = tested on: SR leukemia
HT29 colon = tested on: HT29 colon
HOP-62 NSCLC = tested on: HOP-62 NSCLC
A498 renal = tested on: A498 renal
ACHN renal = tested on: ACHN renal
MDA-MB-435 melanoma = tested on: MDA-MB-435 melanoma
HCC-2998 colon = tested on: HCC-2998 colon
NCI-H460 NSCLC = tested on: NCI-H460 NSCLC
OVCAR-8 ovarian = tested on: OVCAR-8 ovarian
U251 glioblastoma = tested on: U251 glioblastoma
HOP-92 NSCLC = tested on: HOP-92 NSCLC
MDA-MB-231 breast = tested on: MDA-MB-231 breast

What does the source list for `NC(=O)c1nc(-c2c(F)cccc2Cl)oc1Nc1ccc(C(=O)N2CCOCC2)cc1`?
GI50 (786-0 renal): 3.95 µM; TGI (786-0 renal): 9.55 µM; GI50 (SR leukemia): 189 nM; TGI (SR leukemia): 342 nM; GI50 (HT29 colon): 2480 nM; TGI (HT29 colon): 25 µM; GI50 (HOP-62 NSCLC): 2410 nM; TGI (HOP-62 NSCLC): 19.6 µM; GI50 (A498 renal): 1860 nM; TGI (A498 renal): 16.1 µM; GI50 (ACHN renal): 779 nM; TGI (ACHN renal): 3.6 µM; GI50 (MDA-MB-435 melanoma): 11.8 µM; TGI (MDA-MB-435 melanoma): > 51 µM; GI50 (HCC-2998 colon): 6.72 µM; TGI (HCC-2998 colon): 21.9 µM; GI50 (NCI-H460 NSCLC): 395 nM; TGI (NCI-H460 NSCLC): 10.6 µM; GI50 (OVCAR-8 ovarian): 4.51 µM; TGI (OVCAR-8 ovarian): 18.7 µM; GI50 (U251 glioblastoma): 2590 nM; TGI (U251 glioblastoma): 16 µM; GI50 (HOP-92 NSCLC): 576 nM; TGI (HOP-92 NSCLC): 2350 nM; GI50 (MDA-MB-231 breast): 1340 nM; TGI (MDA-MB-231 breast): 5.94 µM
